Read-outs that look alike come from different tables or passages of the source. Where only a bound is given, the exact number is not on record here.

Data set [1] has as its system 2nd degree burn wounds. In words: Burn wound model: change in burn wound area after gas treatment. The format is in vivo, rat. As to conditions: 1000 ppm NO or 250 ppm CO, 15 minutes four times per day; for effect on burn healing compared to untreated burn wound: 10 days. Here is the method:
Similar to the rats used for the type I diabetic model, Rats were anesthetized with the mixture of ketamine 50 mg/kg IM and xylazine 5 mg/kg IM administered intraperitoneally. Anesthesia levels were maintained by additional injections of this mixture as needed. Each rat was allowed to breathe spontaneously. Hair was removed from the rats' backs and the backs of the rat were subsequently wiped with 70% ethanol. The standard rat burn model was used in which burns are produced by hot metal used as a heat source. A customized soldering iron was used to cause superficial dermal second-degree burns on. the backs of the rats. […] It was heated to 80° C. and applied to the skin for 10 seconds, which caused second degree burns. Immediately after wounding, the gasket of an exemplary gas delivery system as disclosed herein was bonded to the skin area surrounding each treated wound by means of a thin layer of Skin-Bond® Cement (Smith & Nephew Inc. Largo, Fla. 33773). The animals were then transferred to individual cages for recovery. Rats received an analgesic (Butorphanol 1-2 mg/kg) injected subcutaneously every four hours for a maximum period of 2 days. To prevent dehydration, 1-2 ml of warm sterile saline/100 g of body weight was injected subcutaneously during the recovery period. The treatment procedures described in more detail below were executed in the same way for the burn wound model as the diabetic wound model. After a certain time period, the rats were again anesthetized using the procedure described above and the wounded skin was taken from the backs of these rats for analysis. Then rats were then euthanized with pentothal (150 mg/kg) injected intraperitoneally.
(§1) All gas mixtures were prepared and stored in HandyGrab Tedlar gas sampling bag with capacity of 0.6 liter (Zefon International, St. Petersburg, Fla., cat#HG-PP-06) prior to each treatment. Static mixing with nitrogen as a diluting gas was performed. To prepare nitric oxide mixtures in nitrogen, a sample of 1000 ppm nitric oxide in nitrogen (Airgas Specialty Gases, Chicago, Ill.) was drawn with a 50 cubic centimeters (cc) disposable medical syringe and then transferred to a Tedlar bag through an injection port. Then the appropriate volume of nitrogen (Airgas Inc., Radur, Pa.) was delivered to the bag that was controlled by a Riteflow® flowmeter (Bel-Art Products, Pequannock, N.J.). The same technique was used to prepare carbon monoxide mixtures in nitrogen, but a 1 cc disposable medical syringe was used to dosage pure carbon monoxide (Air Products and Chemicals Inc., Parkersburg, W. Va.). To calculate the concentrations of mixed gases, the following Equation 2 was applied: Cppm=Vc/(Vc+Vd)×10^6·ppm (2) where Vc is the target gas volume and Vd is the dilutant volume.
Once the rats were prepared with a modified gas delivery system in place, 20 cm^3 of nitrogen was purged through whole gas capsule to remove air. Then 20 cm^3 of a therapeutic gas mixture was delivered in a medical syringe to a gas vent, and the gas vent was sealed. The wounds were exposed to gas mixtures for specified period of times (15 minutes to 1 hour). The treatment was repeated four times a day, while the rat was awake and fully ambulatory. Negative control wounds remained uncovered, allowing access of air to the wound site. Positive control wounds were exposed to pure nitrogen, which served as the diluting gas for every mixture prepared. […]

The test system of data set [2] is normal excisional wounds. In words: Normal excisional wound: wound size after gas treatment. The format is in vivo, rat. The note with it: 1000 ppm NO or 250 ppm CO, 15 minutes four times per day; for wound area shrunk to % of initial: day 3; for wound size/area as % of its starting point: day 10. Here is the method: (§2) Provided methods and apparatus were tested on second degree burn wounds (normal and diabetic), excisional wounds (normal and diabetic), and surgical incisional wounds (normal and diabetic) in rat models. Various treatment protocols were evaluated and dose and time dependent studies were carried out on normal excisional wounds to determine the [NO] and [ONOO^−] release profile using exogenous NO and CO.
as §1
Once the rats were prepared with a modified gas delivery system in place, 20 cm^3 of nitrogen was purged through whole gas capsule to remove air. Then 20 cm^3 of a therapeutic gas mixture was delivered in a medical syringe to a gas vent, and the gas vent was sealed. The wounds were exposed to gas mixtures for specified period of times (15 minutes to 1 hour). The treatment was repeated four times a day, while the rat was awake and fully ambulatory. Negative control wounds remained uncovered, allowing access of air to the wound site. Positive control wounds were exposed to pure nitrogen, which served as the diluting gas for every mixture prepared.
After a specified time interval (1 day, 3 days, 5 days, 7 days, 10 days), rats were again anesthetized with a mixture of ketamine (50 mg/kg I.M.) and xylazine (5 mg/kg I.M.). The gas delivery system was removed by applying few drops of Uni-Solve® (Smith & Nephew Inc. Largo, Fla. 33773), which enabled the removal of the gas delivery system from the skin. Wounds were then removed using a 6 mm in diameter biopsy punch (Miltex, Inc. York, Pa. cat #33-36). Removed wounds were immediately used to measure the NO and ONOO^− release or frozen in liquid nitrogen to be later subjected to hydroxyproline analysis and western blot analysis or embedded in TBS Tissue Frizzing Medium for histological analysis. After the wounded tissue was removed, the rats were euthanized by injecting pentothal at a dose of 150 mg/kg. The rats were then placed in cold storage in an animal care facility.
In FIG. 9, depicted are changes in wound size of a normal excisional wound after treatment with either NO or CO. The photographs were taken at 1, 3, 5, 7 and 10 days after wounding. Normal excisional wounds were treated with either 1000 ppm NO or 250 ppm of CO gas mixtures for 15 minutes four times per day with at least an hour break between treatments. A marker 305 was placed next to each excisional wound to show the size/area of the original wound. […] A very rapid drop in wound area was observed between the 5th and 7th day of healing. […] At day 10, the wound area/size had decreased to 31%+/−5% of its initial starting point. […] At day 3, the area of the NO treated wound had shrunk to 58±4.9%, and the area of gCO treated wound had shrunk to 63±5.7%, whereas the area of untreated wound decreased to 81±6.1%. By day 10 NO treated wounds were much smaller than the untreated wounds and had decreased in size/area to 15%+/−3.8% of its starting point.

For data set [3] the following is noted: inhaled for over 30 min; cited from earlier work.
Data set [4] concerns rat model of wound. It is filed as in vivo. The procedure:
In vivo efficiency of the provided gas delivery system in the process of accelerating wound healing was also tested. For these experiments, a rat model of wound was studied. Indexes of post-ischemic injury included: morphometric analysis, tissue edema, using a laser rate of wound healing process, level of collagen, and breaking strength.

For data set [5], the system named is burn, excisional and surgical incisional wounds. In words: Wound healing time in rat wound models (burn, excisional, incisional; normal and diabetic). As to conditions: exogenous gas treatment. The format is in vivo. The procedure:
as §2
It is believed that gasotransmitters NO, O2 and CO delivered locally to a wound site may influence the healing process via changing the NO/ONOO^− balance. […] As a result, there was a high formation of cytotoxic ONOO^−, which can contribute to wound healing impairment. Accordingly, wounds were exposed individually to either gaseous NO or CO using a modified gas delivery system surrounding an injured area. To determine the efficacy of gas therapy in restoring the NO/ONOO^− balance, treated wounds were subjected to NO and ONOO^− measurements. Also, eNOS and iNOS expression levels were determined using western blotting. Collagen formation and maturation, also wound contraction were investigated and compared to results of untreated wounds.

In data set [6] the test system is diabetic type I excisional wounds. In words: Type I diabetes model: excisional wound contraction after gas treatment. The note with it: for effect on diabetic wound contraction / wound area as % of its initial area / wound size as % of its starting point: 1000 ppm NO or 250 ppm CO, 15 minutes four times per day. The format is in vivo, rat. The procedure:
Male Sprague-Dawley rats (body weight 400-450 g) were used for these studies, were kept in an animal care facility for 48 h at 21° C. in a temperature controlled room with a 12 h light/dark cycle and 30-70% air-changed humidity. Animals were allowed unlimited access to regular chow food and drinking water. Diabetes type I was induced in rats by injection of streptozotocin (STZ) (65 mg/kg in pH 4.5 citrate buffer, IP). To relieve the pain associated with the intraperitoneal streptozotocin injection, rats were first put under deep anesthesia by injecting (ketamine 50 mg/kg IM, xylazine 5 mg/kg, IM). Anesthesia levels were checked by corneal reflex and toe pinch, and sustained by additional injections of the ketamine and xylazine mixture. After 10 days of streptozotocin injections the blood glucose levels were measured to determine if the rats could be considered diabetic. If the blood glucose level was above 300 mg/dL, the rat was considered diabetic. Rats were fasted overnight before the glucose level was measured. After injecting anesthesia, the tip of the tail was sterilized by wiping it with 70% alcohol. Approximately 2 mm of the tail was cut off to withdraw a sample of blood (35 μl), and the tip was compressed for 45-60 seconds to stop the bleeding.
The diabetic rats were then anesthetized (if needed) with a mixture of ketamine (50 mg/kg I.M.) and xylazine (5 mg/kg I.M.) administered intraperitoneally. Once anesthetized, hair was removed from the rats' backs using an electric razor and the backs of the rat were subsequently wiped with a 70% ethyl alcohol swab. On either side of the midline of the rat's back, four excision wounds were made with a sterile about 5 mm in diameter Biopsy Punch (Miltex, Inc. York, Pa. cat#33-35). The resulting wounds were approximately 4 mm deep and were deprived of epidermis, dermis and subcutaneous fat. Immediately after wounding, the gasket of an exemplary gas delivery system as disclosed herein was bonded to the skin area surrounding each treated wound by means of a thin layer of Skin-Bond® Cement (Smith & Nephew Inc. Largo, Fla. 33773).
After the surgery and during the recovery period from anesthesia, rats were turned from side to side to avoid pulmonary edema and to ensure unobstructed breathing. The rats were transferred to cages lined with sterile drape and contained moist food. To minimize any stress associated with pain, the rats were injected subcutaneously with analgesic (Butorphanol 1-2 mg/kg) every four hours for a maximum period of 2 days. Additionally, 1-2 ml of warm sterile saline/100 g of body weight was injected subcutaneously during the recovery period to prevent dehydration. Once the rats were completely awake, they were placed in cages with free access to food and drinking water. During the postoperative care period, rats were monitored for signs of infection, or self inflicted trauma. Additionally food and water intake was monitored. The diabetic rats were subjected to treatment as described below.
as §1, with “To calculate the concentrations of mixed gases, the following Equation 2 was applied: Cppm=Vc/(Vc+Vd)×10^6·ppm (2) where Vc is the target gas volume and Vd is the dilutant volume.” left out

Setting [7] is: about 50-1000 ppm NO, about 50-250 ppm CO, about 100% O2.

Regarding `[C-]#[O+]` [CO, carbon monoxide], the “effect on burn healing compared to untreated burn wound” value in data set [1] was “reduced swelling and accelerated burn healing process”. Also, in data set [1] (day 10), the “increase of burn wound area” value is reported as “roughly 67.1%+/−3.5”. In addition, in data set [2], the “effect on normal excisional wound contraction” value was “accelerated wound contraction and resulted in a significant decrease in wound size”; the “wound area shrunk to % of initial” value was 63±5.7%; the “wound size/area as % of its starting point” value is recorded as 22.2%+/−3.3. Besides, the “concentration believed to be dangerous when inhaled” value in data set [3] is “higher than 1500 ppm”. Moreover, the “wound healing in a single gas treatment” value in data set [4] (setting [7]) is “good results”. The “decreased wound healing time (versus control, untreated)” value in data set [5] was “at least 20%”. Besides, the “effect on diabetic wound contraction” value in data set [6] is listed as “some influence on wound contraction”. Moreover, the “wound area as % of its initial area” value in data set [6] (day 5) turned out to be 82.6±3.7%. Besides, in data set [6] (day 10), the “wound size as % of its starting point” value is 41.4%+/−2.8.
Turning to `O=O` [O2, Oxygen], in data set [4] (rat, in vivo), the “wound healing in a single gas treatment” value is on record as “good results”.
On to `[N]=O` [NO, nitric oxide], for which the “effect on burn healing compared to untreated burn wound” value in data set [1] was “reduced swelling and accelerated burn healing process”. Moreover, the “increase of burn wound area” value in data set [1] (day 3) turned out to be 76.3±4.2%. Further, in data set [1] (day 10), the “increase of burn wound area” value was “roughly 58.0%+/−3.1”. In data set [2], the “effect on normal excisional wound contraction” value was “accelerated wound contraction and resulted in a significant decrease in wound size”; the “wound area shrunk to % of initial” value is given as 58±4.9%; the “wound size/area as % of its starting point” value worked out at 15%+/−3.8. In addition, in data set [3], the “concentration believed to be dangerous when inhaled” value was over 500 ppm. Moreover, the “wound healing in a single gas treatment” value in data set [4] (setting [7]) is “good results”. Besides, the “decreased wound healing time (versus control, untreated)” value in data set [5] is 30-50%. The “effect on diabetic wound contraction” value in data set [6] was “accelerated wound contraction and stimulated wound repair”. Besides, in data set [6] (day 7), the “wound area as % of its initial area” value is reported as 57.8±3.1%. For the same molecule, in data set [6] (day 10), the “size difference between treated and untreated diabetic excisional wounds” value was about 17%; the “wound size as % of its starting point” value came out at 29.8%+/−2.5.

(Values after patent US9511196B2, “Systems and methods for promoting wound healing” (priority 2009, dated 2016).)
